Here are results for one compound from patent US20090130229A1, “Antitumor uses of compound” (Cell Therapeutics, Inc., priority 2002, published 2009).

Data set [1] deals with TT medullary thyroid carcinoma xenografts. Put plainly: Antitumor activity in nude mice harboring TT xenografts. Type of data set: in vivo. As to conditions: for TWI (tumor weight inhibition): 10 consecutive days. On the procedure: FIG. 3. Antitumor activity of Cpd 1 in nude mice harboring TT medullary thyroid carcinoma xenografts. Drug treatment started 25 days after s.c. inoculum of the tumor cells. Cpd 1 was delivered per os at 50 or 100 mg/Kg, twice in a day (2qd), for 10 consecutive days (indicated by arrows). Control mice received the vehicle. […] TWI were 60% (P<0.005) and 80% (P<0.0005) for the 50 mg/Kg and 100 mg/Kg doses, respectively.
All experiments were carried out using female athymic nude CD-1 mice, 8-11-weeks old (Charles River, Calco, Italy). Mice were maintained in laminar flow rooms with constant temperature and humidity. Experimental protocols were approved by the Ethic Committee for Animal Experimentation of the Istituto Nazionale per lo Studio e la Cura dei Tumori (Milan, Italy), according to the United Kingdom Coordinating Committee on Cancer Research Guidelines (Workman P. et al., British Journal of Cancer, 77, 1, 1998).
The MTC cells TT (1.6×10^7 cells) were s.c. inoculated in mice as a cell suspension from in vitro cell culture. Each control or drug-treated group included 8-10 tumors. Tumor cells were injected on day 0, and tumor growth was followed by biweekly measurements of tumor diameters with a Vernier caliper. Tumor weight (TW) was calculated according to the formula: TW (mg)=tumor volume (mm^3)=d^2xD/2, where d and D are the shortest and the longest diameter, respectively. Drug treatment started when tumors were just measurable (mean TW about 50 mg), 25 days after the inoculum of tumor cells. Cpd1 was dissolved in 5% ethanol, 5% Cremophor EL, 90% saline (0.9% NaCl) and delivered per os twice in a day (2qd) by a daily schedule for 10 days. Control mice received the solvent solution.
Drug efficacy was assessed as percentage TW inhibition (TWI % in drug-treated versus control mice expressed as: TWI %=100−(mean TW treated/mean TW control×100). For statistical analysis, TW in control and treated mice were compared on the day of TWI % evaluation, by Student's t test (two-tailed). P values less than 0.05 were considered statistically significant.

Data set [2] addresses T1, c-Kit (Homo sapiens, UniProt P10721).
T1 construct: endogenous in cells; host or cells: N592 (human small cell lung carcinoma)
Put plainly: c-Kit autophosphorylation and expression in SCLC cell line N592. The class given is cell-based. The conditions noted are these: N592 cells, 24 h. On the procedure: FIG. 7. Effects of Cpd1 on cell lines expressing constitutively activated forms of Kit. […] Cells were treated with 20 μM Cpd1 and photographed 24 h later under a phase-contrast microscope (original magnification X 100). B): Inhibition of Kit (Δ559) autophosphorylation and expression in NIH3T3 transfectants. Cells were treated with Cpd 1 at the indicated concentrations, for 72 h. Cell lysates were immunoprecipitated with anti-Kit antibody and subjected to Western blotting with anti-p-Tyr or anti-Kit antibodies. C): Inhibition of expression and autocrine loop-activated autophosphorylation of c-Kit in the SCLC cell line N592. Cells were treated with Cpd 1 at the indicated concentrations, for 24 h. Whole cell lysates were subjected to Western blotting with anti-Kit antibody or with an antibody specifically recognizing the tyrosine phosphorylated/activated Kit (p-Kit). […]
For whole-cell extract preparation, cells were lysed in sodium dodecyl sulfate (SDS) sample buffer (62.5 mM Tris-HCl (pH 6.8), 2% SDS) with 1 mM PMSF, 10 μg/ml pepstatin, 12.5 μg/ml leupeptin, 100 KIU aprotinin, 1 mM sodium orthovanadate, 1 mM sodium molybdate. Protein concentration was determined in appropriately diluted aliquots by the bicinchionic acid (BCA) method (Pierce, Rockford, Ill.), then samples were adjusted to a final concentration of 10% glycerol, 5% β-mercaptoethanol, 0.001% bromophenol blue. […]

For data set [3], the system named is NIH3T3^KITΔ559 cells. Put plainly: Reversion of transformed morphologic phenotype of NIH3T3 transfectants expressing KIT (Δ559). Type of data set: cell-based, mouse. The conditions noted are these: 20 μM, 24 h, phase-contrast microscope. On the procedure: FIG. 7. Effects of Cpd1 on cell lines expressing constitutively activated forms of Kit. […] Cells were treated with 20 μM Cpd1 and photographed 24 h later under a phase-contrast microscope (original magnification X 100). B): Inhibition of Kit (Δ559) autophosphorylation and expression in NIH3T3 transfectants. Cells were treated with Cpd 1 at the indicated concentrations, for 72 h. Cell lysates were immunoprecipitated with anti-Kit antibody and subjected to Western blotting with anti-p-Tyr or anti-Kit antibodies. C): Inhibition of expression and autocrine loop-activated autophosphorylation of c-Kit in the SCLC cell line N592. Cells were treated with Cpd 1 at the indicated concentrations, for 24 h. Whole cell lysates were subjected to Western blotting with anti-Kit antibody or with an antibody specifically recognizing the tyrosine phosphorylated/activated Kit (p-Kit).
The following human medullary thyroid carcinoma (MTC) cell lines were used in this study. The TT cell line derived from a MEN2A-associated MTC characterized by expression of the RET oncogene carrying the mutation C634W. The MZ-CRC-1 cell line derived from MEN2B-associated MTC characterized by expression of the RET oncogene carrying the mutation M918T. […]

T1 sequence (P10721 26-976): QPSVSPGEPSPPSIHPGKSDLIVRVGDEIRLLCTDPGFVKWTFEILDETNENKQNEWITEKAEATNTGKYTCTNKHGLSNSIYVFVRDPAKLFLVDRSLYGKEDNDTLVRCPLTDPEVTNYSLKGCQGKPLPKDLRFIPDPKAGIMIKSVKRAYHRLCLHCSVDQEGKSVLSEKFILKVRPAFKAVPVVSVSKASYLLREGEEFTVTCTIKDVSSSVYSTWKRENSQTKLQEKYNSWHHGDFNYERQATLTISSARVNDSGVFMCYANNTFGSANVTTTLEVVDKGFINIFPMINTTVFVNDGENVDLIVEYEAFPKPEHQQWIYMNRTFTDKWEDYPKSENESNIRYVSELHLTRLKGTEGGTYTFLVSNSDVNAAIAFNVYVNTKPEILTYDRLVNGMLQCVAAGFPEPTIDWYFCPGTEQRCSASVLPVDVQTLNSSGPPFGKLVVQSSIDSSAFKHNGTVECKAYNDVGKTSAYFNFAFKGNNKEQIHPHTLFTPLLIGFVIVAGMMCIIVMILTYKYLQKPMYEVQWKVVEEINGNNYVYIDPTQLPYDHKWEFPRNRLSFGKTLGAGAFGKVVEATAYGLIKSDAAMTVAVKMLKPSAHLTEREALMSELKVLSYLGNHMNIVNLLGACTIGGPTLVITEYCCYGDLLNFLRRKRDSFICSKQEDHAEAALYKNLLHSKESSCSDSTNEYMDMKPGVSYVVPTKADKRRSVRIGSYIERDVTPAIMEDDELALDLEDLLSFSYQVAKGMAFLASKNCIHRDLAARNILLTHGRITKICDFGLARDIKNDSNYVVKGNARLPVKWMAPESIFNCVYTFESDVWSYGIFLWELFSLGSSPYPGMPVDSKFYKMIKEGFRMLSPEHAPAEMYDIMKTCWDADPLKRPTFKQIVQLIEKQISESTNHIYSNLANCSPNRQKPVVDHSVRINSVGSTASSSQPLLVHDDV

For `COc1cc2c(cc1OC)/C(=C\c1ccc(O)cc1)C(=O)N2` [Cpd 1, (E)-1,3-dihydro-5,6-dimethoxy-3-[(4-hydroxyphenyl)methylene]-2H-indol-2-one], the “TWI (tumor weight inhibition)” value turned out to be 60% in data set [1] (50 mg/Kg per os, 2qd, P<0.005) and 80% in data set [1] (100 mg/Kg per os, 2qd, P<0.0005). The Tumor growth result in data set [1] (50 or 100 mg/Kg per os, 2qd, 10 days) is recorded as “significant dose-dependent inhibition”. For the same compound, the “Tumor weight inhibition (TWI) reached” value in data set [1] (oral, daily dose of 50-100 mg/Kg (twice a day)) is recorded as 80%. In data set [1] (oral, daily dose of 50-100 mg/Kg (twice a day), nude mice), the Toxicity result is “without inducing toxicity”. The “c-Kit autocrine loop-activated tyrosine phosphorylation (p-Kit)” value in data set [2] is listed as “dose-dependent drug-induced inhibition”. For the same compound, the c-Kit expression entry in data set [2] is “dose-dependent drug-induced inhibition”. Also, the Transformed morphologic phenotype result in data set [3] is “Reversion of the transformed morphologic phenotype”.
